Here are results for 18 compounds from patent US9090600B2, “Fungicidal 4-substituted-3-{phenyl[(heterocyclylmethoxy)imino]methyl}-1,2,4-oxadizol-5(4H)-one derivatives” (BAYER INTELLECTUAL PROPERTY GMBH, priority 2011, dated 2015).

Read-outs that look alike come from different tables or passages of the source. Marks after values point to notes of the source that are not given here.

Series [1] deals with Phytophthora infestans. It counts as in vivo. To be noted: tomato, preventive spray, 100 ppm of active ingredient, evaluated 7 days after inoculation.
For series [2] the following is noted: pH 2.7.
Series [3] concerns Plasmopara viticola. The series is described as follows: Plasmopara test (grapevines)/preventive. The series is classed as in vivo. The following applies: preventive spray, 10 ppm of active ingredient, evaluated 6 days after inoculation. The procedure: Solvent: 24.5 parts by weight of acetone • 24.5 parts by weight of dimethylacetamide
Emulsifier: 1 part by weight of alkylaryl polyglycol ether
To produce a suitable preparation of active compound, 1 part by weight of active compound is mixed with the stated amounts of solvent and emulsifier, and the concentrate is diluted with water to the desired concentration.
To test for preventive activity, young plants are sprayed with the preparation of active compound at the stated rate of application. After the spray coating has dried on, the plants are inoculated with an aqueous spore suspension of Plasmopara viticola and then remain for 1 day in an incubation cabinet at approximately 20° C. and a relative atmospheric humidity of 100%. The plant is subsequently placed for 4 days in a greenhouse at approximately 21° C. and a relative atmospheric humidity of approximately 90%. The plants are then misted and placed for 1 day in an incubation cabinet.
The test is evaluated 6 days after the inoculation. 0% means an efficacy which corresponds to that of the untreated control, while an efficacy of 100% means that no disease is observed.

Series [4] concerns Phytophthora infestans. It counts as in vivo. The following applies: tomato plants, spray, 500 ppm, grading 5 days after contamination.

Take `CCCCCOC(=O)Nc1cccc(CO/N=C(\c2ccccc2)c2noc(=O)n2C)n1` [Example 26]: in series [1], the Eff. % is on record as 93%. Moreover, the LogP in series [2] was 4.24 [a].
In turn, `C#CCCOC(=O)Nc1cccc(CO/N=C(/c2ccccc2)c2noc(=O)n2C(F)F)n1` [Example 58] had an Eff. % in series [1] of 80%. The lipophilicity (LogP) in series [2] was 3.64 [a].
As to `COc1cccc(OCC(=O)Nc2nc(CO/N=C(/c3ccccc3)c3noc(=O)n3C)cs2)c1` [Example 318], the LogP in series [2] is 3.53 [a]. In addition, the Eff. % in series [3] is given as 93%; in series [4], 99%.
In the case of `CC(Oc1cccc(Cl)c1)C(=O)Nc1nc(CO/N=C(/c2ccccc2)c2noc(=O)n2C)cs1` (stereo not shown) [Example 321], the log partition coefficient (LogP) in series [2] was 4.1 [a]. Further, the Eff. % in series [3] is reported as 82%; in series [4], 97%.
For `Cc1ccc(C)c(C(=O)Nc2cccc(CO/N=C(/c3ccccc3)c3noc(=O)n3C)n2)c1` [Example 327], in that order: 4.06 [a], 95% and 100%.
For `Cc1ccc(C)c(C(=O)Nc2nc(CO/N=C(/c3ccccc3)c3noc(=O)n3C)cs2)c1` [Example 336], the lipophilicity (LogP) in series [2] is 3.94 [a]. Further, the Eff. % in series [3] stood at 91%; in series [4] it was 99%.
In the case of `CC(C)CC(=O)Nc1cccc(CO/N=C(/c2ccccc2)c2noc(=O)n2C)n1` [Example 340], in series [2], the LogP is 3.44 [a]. The Eff. % in series [3] is given as 79%; in series [4], 100%.
For `C#CCCOC(=O)Nc1cccc(CO/N=C(/c2cccc(C)c2)c2noc(=O)n2C)n1` [Example 343], in that order: 3.59 [a], 95% and 100%.
Take `Cc1cccc(C(=O)Nc2cccc(CO/N=C(/c3ccccc3)c3noc(=O)n3C)n2)c1` [Example 344]: the LogP in series [2] is 3.87 [a]. The Eff. % in series [3] was 93%; in series [4], 100%.
`Cn1c(/C(=N\OCc2cccc(NC(=O)c3ccc(Cl)c(Cl)c3)n2)c2ccccc2)noc1=O` [Example 352]: the log partition coefficient (LogP) in series [2] was 4.54 [a]. The Eff. % in series [3] came out at 79%; in series [4], 100%.
In the same order, the values of `CCCCCC(=O)Nc1cccc(CO/N=C(/c2cccc(C)c2)c2noc(=O)n2C)n1` [Example 355] are 4.24 [a], 75% and 100%.
In the same order, the values of `Cn1c(/C(=N\OCc2cccc(NC(=O)CC3CCCC3)n2)c2ccccc2)noc1=O` [Example 365] are 3.92 [a], 98% and 100%.
With `CCCCCC(=O)Nc1cccc(CO/N=C(/c2cccc(F)c2)c2noc(=O)n2C)n1` [Example 376], the lipophilicity (LogP) in series [2] was 3.99 [a]. The Eff. % amounted to 93% in series [3] and 100% in series [4].
As for `Cn1c(/C(=N\OCc2csc(NC(=O)Cc3ccccc3)n2)c2ccccc2)noc1=O` [Example 378], the lipophilicity (LogP) in series [2] was 3.37 [a]. In addition, the Eff. % in series [3] stood at 95%; in series [4], 100%.
In the same order, the values of `Cn1c(/C(=N\OCc2cccc(NC(=O)c3cccc(Br)c3)n2)c2ccccc2)noc1=O` [Example 380] are 4.16 [a], 95% and 93%.
Take `Cn1c(/C(=N\OCc2cccc(NC(=O)CCC3CCC3)n2)c2ccccc2)noc1=O` [Example 389]: the LogP in series [2] was 4.02 [a]. The Eff. % is recorded as 100% in series [3] and 99% in series [4].
For `Cc1ccc(C(=O)Nc2cccc(CO/N=C(/c3ccccc3)c3noc(=O)n3C)n2)cc1C` [Example 401], the LogP in series [2] is 4.16 [a]. The Eff. % was 90% in series [3] and 99% in series [4].
`Cn1c(/C(=N\OCc2cccc(NC(=O)CCCCCl)n2)c2ccccc2)noc1=O` [Example 404]: the lipophilicity (LogP) in series [2] was 3.44 [a]. The Eff. % was found to be 87% in series [3] and 98% in series [4].

For orientation: LogP means a log measure of how a compound divides between an organic and an aqueous phase. Read a low LogP as lower lipophilicity.
